Experimental data from US20070031511A1, “Method of treatment” (priority 2003, published 2007).
Read-outs that look alike come from different tables or passages of the source. Values belong to the molecule of their own block, whether it stands above or below them. Where a SMILES comes first, the peptide text is derived from it. Where no end group is shown, it is not given here. [ ]: non-standard residue; d: D form. pGlu = O=C1CC[C@@H](C(=O)O)N1

Tests used:
[1] = tested on: hepatoma cell lines; details: Kicic et al, 2001; cited from earlier work
[2] = molecular target: T1, CCK-2 receptor (Homo sapiens, UniProt P32239); assay: Gamide-stimulated inositol phosphate production in COS-7 cells transfected with the CCK-2 receptor; format: cell-based; parameters: COS-7 cells transiently transfected with CCK-2 receptor cDNA; expressed in transfected cells; host or cells: COS-7; details: for Stimulation of inositol phosphate production: 10 nM peptide
T1 sequence (P32239 1-447): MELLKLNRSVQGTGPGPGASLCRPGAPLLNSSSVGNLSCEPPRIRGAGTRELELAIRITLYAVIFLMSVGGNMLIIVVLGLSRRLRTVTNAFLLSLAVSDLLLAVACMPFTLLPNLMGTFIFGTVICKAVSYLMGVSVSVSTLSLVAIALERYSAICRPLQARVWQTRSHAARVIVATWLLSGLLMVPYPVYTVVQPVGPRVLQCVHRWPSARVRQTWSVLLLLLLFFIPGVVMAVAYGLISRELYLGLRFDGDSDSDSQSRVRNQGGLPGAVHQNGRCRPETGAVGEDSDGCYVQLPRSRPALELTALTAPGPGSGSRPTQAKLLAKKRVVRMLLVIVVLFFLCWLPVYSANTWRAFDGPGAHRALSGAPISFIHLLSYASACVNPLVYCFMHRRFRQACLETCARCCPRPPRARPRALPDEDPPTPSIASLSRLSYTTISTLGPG
Procedure: (§1) Intracellular inositol phosphate production was determined as described previously (Qian et al, 1993). IMGE-5 cells (10^5 cells/ml) were plated in 24-multiwell culture plates in DMEM supplemented with 10% FBS, 200 IU/ml penicillin and 200 μg/ml streptomycin. 24 h later, cells were incubated with DMEM supplemented with antibiotics and Myo-[2-^3H]inositol (2.5 μCi/well) and shifted to 39° C. for 16 h. Cells were then washed with pre-warmed DMEM and incubated (20-30 minutes, 37° C.) with DMEM supplemented with 20 mM LiCl. Loaded cells were then washed in 1 ml of IP buffer (135 mM NaCl, 20 mM N-(2-hydroxyethyl)piperazine-N′-(2-ethanesulfonic acid), 2 mM CaCl2, 1.2 mM MgSO4, 1 mM ethylene glycol-bis(2-aminoethylether)-N,N,N′,N′-tetraacetic acid, 10 mM LiCl, and 0.5% bovine serum albumin, pH 7.45) and incubated with or without agonist in a final volume of 0.5 ml of IP buffer. After 1-h incubation at 37° C., the reaction was stopped by removing the incubation medium and adding 1 ml of a mixture of ethanol/HCl (2000:1; v/v). One ml of each aliquot was applied to a column containing 1.6 ml of a 1:2 (v/v) Dowex AG-1-X8 anion exchange resin in distilled water. The columns were washed with 4 ml of distilled water, followed by 4 ml of 40 mM HCOONH4, and inositol phosphates were eluted with 4 ml of 1 M HCOONH4. The radioactivity of each eluate was counted after addition of Complete phase combining system solution (Amersham, UK). For the positive control, IMGE-5 cells were incubated with a combination of 30 mM NaF and 10 μM AlCl3 under the same experimental conditions.
Gamide-stimulated inositol phosphate production was measured in COS-7 cells transfected with the CCK-2 receptor. […] Bismuth ions alone had no effect on inositol phosphate production in CCK-2 receptor-transfected COS-7 cells and HT29 cells, even at the highest concentration tested.
We then investigated the role of the individual glutamates in biological activity. The effects of the mutants GamideE7A and GamideE8,9A on inositol phosphate production in COS-7 cells transiently transfected with the CCK-2 receptor were compared.

[3] = tested on: HT29 human colorectal carcinoma cells; assay: Ggly-stimulated inositol phosphate production in HT29 cells; format: cell-based; details: HT29 cells
Procedure: as §1
Ggly-stimulated inositol phosphate production was measured in HT29 human colorectal carcinoma cells.

[4] = molecular target: T1, CCK-2 receptor; assay: [125I]-BH-CCK8 displacement, CCK-2 receptor on transiently transfected COS-7 cells; format: binding; parameters: COS-7 cells transiently transfected with CCK-2 receptor cDNA; expressed in transfected cells; host or cells: COS-7; details: for % Maximum Binding (COS-7): binding in the absence of competitor, fitted, mean ± S.E.; for Predicted ordinate intercept, FIG. 21: single experiment; for Ratio IC50 mutant/IC50 Gamide: transfected COS-7 cells
Procedure: (§2) Non-specific binding was evaluated with […] of unlabelled CCK8. Incubation was stopped by adding 2 ml of ice-cold PBS containing 2% bovine serum albumin. After centrifugation, supernatants were removed and the radioactivity bound to the cell membranes was measured in a γ-counter (LKB, Wallac, Finland).
The lines of best fit shown in FIG. 21 were obtained by nonlinear regression to a single site model with the program Sigmaplot.

[5] = molecular target: T1, CCK-2 receptor; assay: [125I]-BH-CCK8 displacement, CCK-2 receptor on Jurkat cells; format: binding; details: for Ratio IC50 mutant/IC50 Gamide: T-lymphoblastoid Jurkat cells; for % Maximum Binding (Jurkat): binding in the absence of competitor, fitted, mean ± S.E.
Procedure: as §2

[6] = Quenching of peptide tryptophan fluorescence by ferric ions (stoichiometry, apparent Kd); format: binding; details: pH 4.0; mean ± S.E.; read-out: Kd (μM) of ferric ion binding (amidated gastrin17 and related peptides)
Procedure: The tryptophan fluorescence of peptide solutions was measured in 3 mL quartz cuvettes thermostated at […], with a Spex Fluorolog-2 spectrofluorimeter (Spex Industries, Edison, N.J.), with the excitation and emission wavelengths set at 290 and 345 nm, respectively. The quenching of tryptophan fluorescence induced by the binding of metal ions was used to calculate the fraction of binding sites occupied, fa: fa=(yf−y)/(yf−yb) where y is the fluorescence signal at a given concentration of metal ions and yb and yf are the signals when the binding sites are fully occupied and unoccupied, respectively (Winzor et al, 1995). The stoichiometry, p, and apparent dissociation constant, Kd, were then obtained, using the program Sigmastat (Jandel Scientific, San Rafael, Calif.), from the intercept and slope of a linear regression of the data transformed as described by Winzor and Sawyer (1995) in terms of the equation Cs/fa=pCa+Kd/(1−fa) where Cs is the total concentration of metal ions, and Ca is the total concentration of glycine-extended gastrin17. For the bismuth binding studies, the data was fitted by non-linear regression with the program Sigmaplot (Jandel Scientific, San Rafael, Calif.) to the equations for models with one binding site or two binding sites with identical affinities: fa=x/(Kd1+x) or to the model with two binding sites with different affinities: fa=(Kd1·x+Kd2·x+2x^2)/2(Kd1·Kd2+Kd1·x+Kd2·x+x^2) where x is the concentration of free metal ions, Kd1 is the first site dissociation constant and Kd2 is the second site dissociation constant. For the one-site model the value of x at any given total concentration of metal ions was obtained by exact solution of the appropriate quadratic (Malby et al, 2001). For the two-site models the value of x was obtained by an iterative Newton-Raphson procedure (Linse et al, 1991). Absorption Spectroscopy
The tryptophan fluorescence of progastrin6-80, glycine-extended gastrin17 and related peptides was measured in the presence of increasing concentrations of ferric ions in 10 mM sodium acetate, pH 4.0, 100 mM NaCl, 0.005% Tween 20. […] Values from the indicated number of independent experiments were combined to obtain the mean values (±S.E.) presented above. No binding of ferric ions to Ggly1-4 or Ggly12-18 was observed.
The tryptophan fluorescence of amidated gastrin17 and related peptides was measured in the presence of increasing concentrations of ferric ions at pH 4.0 (8). Values of the stoichiometry and the apparent dissociation constant (Kd) were obtained from linear transformations of the data presented in FIG. 20A by least squares fitting. Values from the indicated number of independent experiments were combined to obtain the mean values (±S.E.) presented above.

[7] = tested on: IMGE-5 cells; assay: IMGE-5 cell proliferation, MTT assay; format: cell-based, mice
Procedure: The IMGE-5 cell line was established from the gastric mucosa of mice transgenic for a temperature-sensitive mutant of the SV40 large T antigen (Hollande et al, 2001). IMGE-5 cells were generally grown at 33° C. in DMEM containing 1 unit/ml γ-interferon, 10% FBS, 100 U/ml penicillin, and 100 μg/ml streptomycin (permissive conditions). For all experiments, cells were transferred to 39° C. in the same medium without […] (non-permissive conditions), where they display differentiated characteristics such as expression of functional adherens and tight junctions. All experiments have been performed on cells between passages 20 and 35.
A colorimetric assay was used to measure cell proliferation. Briefly, IMGE-5 cells were seeded in a 96-well plate at a density of 10^4 cells/well in DMEM containing 10% FBS and antibiotics. The following day, cells were synchronized in Go by incubation for 24 h in the same medium lacking FBS. The medium was replaced the next day with fresh medium containing 1% FBS and antibiotics and the peptides under investigation, and incubation was continued for 72 h. 15 μl of 5 mg/ml 3-(4,5-dimethylthiazol-2-yl)-2-5-diphenyltetrazolium bromide (MTT, Sigma, St Louis Mo.) was added per well, and the plate was incubated at 37° C. for 4 h before the medium was discarded. 200 μl 40 mM HCl in isopropanol was added to lyse the cells, and the absorbance at 570 nm was read on a BioRad Model 550 Microplate reader (BioRad, Hercules, Calif.).

[8] = pH 4.0; Ref. 8 given in table; read-out: Kd (μM), apparent dissociation constant for ferric ions; cited from earlier work

Molecule: Cc1c(O)c(=O)ccn1C [1,2-dimethyl-3-hydroxypyridin-4-one]
Inhibition of proliferation of hepatoma cell lines in vitro [1]: effective inhibitors

Increase in inositol phosphate production ([2]; COS-7 cells transfected with the CCK-2 receptor, 10 μM AlF4−, 10 nM Gamide): 5 fold
Molecule: [F][Al-]([F])([F])[F] [AlF4^−]
Increase in inositol phosphate production [3]: 2.6 fold

Molecule: O=C(O)CN(CCN(CC(=O)O)CC(=O)O)CCN(CC(=O)O)CC(=O)O [DTPA, diethylene triamine pentaacetic acid]
Inhibition of proliferation of hepatoma cell lines in vitro [1]: the best inhibitor of all those tested

Molecule: O=C(O)CN(CCN(CC(=O)O)CC(=O)O)CC(=O)O [EDTA, ethylene diamine tetraacetic acid]
Inhibition of proliferation of hepatoma cell lines in vitro [1]: ineffective

% Maximum Binding (COS-7) [4]: 92.0 ± 1.0%
Predicted ordinate intercept, FIG. 21 [4]: 91.6%
Ratio IC50 mutant/IC50 Gamide [4]: 1.4
Ratio IC50 mutant/IC50 Gamide [5]: 2.4
% Maximum Binding (Jurkat) [5]: 96.7 ± 4.6%
Kd [6]: 0.17 ± 0.03 µM
Molecule: CSCC[C@H](NC(=O)[C@H](Cc1c[nH]c2ccccc12)NC(=O)CNC(=O)[C@H](Cc1ccc(O)cc1)NC(=O)[C@H](C)NC(=O)[C@H](CCC(=O)O)NC(=O)[C@H](CCC(=O)O)NC(=O)[C@H](CCC(=O)O)NC(=O)[C@H](C)NC(=O)[C@H](CCC(=O)O)NC(=O)[C@H](CC(C)C)NC(=O)[C@H](Cc1c[nH]c2ccccc12)NC(=O)[C@@H]1CCCN1C(=O)CNC(=O)[C@@H]1CCC(=O)N1)C(=O)N[C@@H](CC(=O)O)C(=O)N[C@@H](Cc1ccccc1)C(N)=O [GamideE7A] ([pGlu]GPWLEAEEEAYGWMDF-NH2)
Stimulation of inositol phosphate production [2]: No significant difference was observed in the extent of stimulation

% Maximum Binding (COS-7) [4]: 98.4 ± 2.1%
Predicted ordinate intercept, FIG. 21 [4]: 91.0%
Ratio IC50 mutant/IC50 Gamide [4]: 4.1
Ratio IC50 mutant/IC50 Gamide [5]: 2.2
% Maximum Binding (Jurkat) [5]: 97.8 ± 9.0%
Kd [6]: 0.16 ± 0.06 µM
Molecule: CSCC[C@H](NC(=O)[C@H](Cc1c[nH]c2ccccc12)NC(=O)CNC(=O)[C@H](Cc1ccc(O)cc1)NC(=O)[C@H](C)NC(=O)[C@H](CCC(=O)O)NC(=O)[C@H](C)NC(=O)[C@H](C)NC(=O)[C@H](CCC(=O)O)NC(=O)[C@H](CCC(=O)O)NC(=O)[C@H](CC(C)C)NC(=O)[C@H](Cc1c[nH]c2ccccc12)NC(=O)[C@@H]1CCCN1C(=O)CNC(=O)[C@@H]1CCC(=O)N1)C(=O)N[C@@H](CC(=O)O)C(=O)N[C@@H](Cc1ccccc1)C(N)=O [GamideE8, 9A] ([pGlu]GPWLEEAAEAYGWMDF-NH2)
Stimulation of inositol phosphate production [2]: No significant difference was observed in the extent of stimulation

Molecule: Cc1ncc(CO)c(C=NNC(=O)c2ccncc2)c1O [pyridoxal isonicotinoyl hydrazone]
Inhibition of proliferation of hepatoma cell lines in vitro [1]: effective inhibitors

Molecule: ZGPWLE5A ([pGlu]GPWLEEEEEA; listed as Homo sapiens) [Ggly1-11]
Stimulation of IMGE-5 cell proliferation ([7]; MTT assay, peptides shown at 1 nM (FIGS. 7A, 8A)): did increase proliferation, but to a significantly lesser extent than Ggly
Reduction of activity relative to Ggly ([7]; cell proliferation or wound healing assays (FIG. 7)): approximately 50%
Kd [8]: 1.2 ± 0.04 µM
